Measurements as given in ChEMBL document CHEMBL5528046, “Discovery of Novel PROTAC Degraders of p300/CBP as Potential Therapeutics for Hepatocellular Carcinoma” (J Med Chem, 2024).
The source made the active and inactive calls. The rule behind the calls is not given here.

Assays:
[1] = target: T1, Protein cereblon/Histone acetyltransferase p300 (Homo sapiens, UniProt Q09472+Q96SW2); assay: PROTAC activity at CRBN/p300 in human SK-HEP1 cells assessed as induction of p300 degradation by measuring residual activity at 0.5 uM pretreated with MLN4924 at 0.1 uM followed by compound addition by immunoblotting analysis relative to control; type: cell-based
[2] = target: T1, Protein cereblon/Histone acetyltransferase p300; assay: PROTAC activity at CRBN/p300 in human SK-HEP1 cells assessed as induction of p300 protein degradation by measuring residual activity at 250 nM incubated for 24 hrs by immunoblotting analysis (reference value: 100%); type: cell-based
[3] = target: T1, Protein cereblon/Histone acetyltransferase p300; assay: PROTAC activity at CRBN/p300 in human SK-HEP1 cells assessed as induction of p300 degradation by measuring increase in p21 level at 0.5 uM pretreated with MG-132 at 1 uM followed by compound addition by immunoblotting analysis relative to control; type: cell-based
[4] = tested on: SK-HEP1; assay: Downregulation of IGFBP3 mRNA expression in human SK-HEP1 cells at 1 uM incubated for 24 hrs by RT-qPCR analysis; type: functional, cell-based
[5] = tested on: SK-HEP1; assay: Induction of cell cycle arrest at G2/M phase in human SK-HEP1 cells assessed as SKP2 protein level at 2 uM incubated for 24 hrs by immunoblotting analysis (reference value: 100%); type: functional
[6] = tested on: SK-HEP1; assay: Induction of cell cycle arrest at G2/M phase in human SK-HEP1 cells assessed as reduction in CDK6 protein level at 2 uM incubated for 24 hrs by immunoblotting analysis (reference value: 100%); type: functional; parameters: scale not given: the % may be the effect or the level left
[7] = tested on: SK-HEP1; assay: Induction of cell cycle arrest at G2/M phase in human SK-HEP1 cells assessed as SKP2 protein level at 1 uM incubated for 24 hrs by immunoblotting analysis (reference value: 100%); type: functional
[8] = tested on: SK-HEP1; assay: Downregulation of ABI3BP mRNA expression in human SK-HEP1 cells at 1 uM incubated for 24 hrs by RT-qPCR analysis; type: functional, cell-based
[9] = target: T2, Protein cereblon/CREB-binding protein (Homo sapiens) (UniProt Q92793+Q96SW2); assay: PROTAC activity at CRBN/CBP in human SK-HEP1 cells assessed as induction of […] protein degradation by measuring residual activity incubated for 24 hrs by immunoblotting analysis; type: cell-based; details: dose 0.5-2 µM
T2 sequence (Q92793 2-2442 limits assumed): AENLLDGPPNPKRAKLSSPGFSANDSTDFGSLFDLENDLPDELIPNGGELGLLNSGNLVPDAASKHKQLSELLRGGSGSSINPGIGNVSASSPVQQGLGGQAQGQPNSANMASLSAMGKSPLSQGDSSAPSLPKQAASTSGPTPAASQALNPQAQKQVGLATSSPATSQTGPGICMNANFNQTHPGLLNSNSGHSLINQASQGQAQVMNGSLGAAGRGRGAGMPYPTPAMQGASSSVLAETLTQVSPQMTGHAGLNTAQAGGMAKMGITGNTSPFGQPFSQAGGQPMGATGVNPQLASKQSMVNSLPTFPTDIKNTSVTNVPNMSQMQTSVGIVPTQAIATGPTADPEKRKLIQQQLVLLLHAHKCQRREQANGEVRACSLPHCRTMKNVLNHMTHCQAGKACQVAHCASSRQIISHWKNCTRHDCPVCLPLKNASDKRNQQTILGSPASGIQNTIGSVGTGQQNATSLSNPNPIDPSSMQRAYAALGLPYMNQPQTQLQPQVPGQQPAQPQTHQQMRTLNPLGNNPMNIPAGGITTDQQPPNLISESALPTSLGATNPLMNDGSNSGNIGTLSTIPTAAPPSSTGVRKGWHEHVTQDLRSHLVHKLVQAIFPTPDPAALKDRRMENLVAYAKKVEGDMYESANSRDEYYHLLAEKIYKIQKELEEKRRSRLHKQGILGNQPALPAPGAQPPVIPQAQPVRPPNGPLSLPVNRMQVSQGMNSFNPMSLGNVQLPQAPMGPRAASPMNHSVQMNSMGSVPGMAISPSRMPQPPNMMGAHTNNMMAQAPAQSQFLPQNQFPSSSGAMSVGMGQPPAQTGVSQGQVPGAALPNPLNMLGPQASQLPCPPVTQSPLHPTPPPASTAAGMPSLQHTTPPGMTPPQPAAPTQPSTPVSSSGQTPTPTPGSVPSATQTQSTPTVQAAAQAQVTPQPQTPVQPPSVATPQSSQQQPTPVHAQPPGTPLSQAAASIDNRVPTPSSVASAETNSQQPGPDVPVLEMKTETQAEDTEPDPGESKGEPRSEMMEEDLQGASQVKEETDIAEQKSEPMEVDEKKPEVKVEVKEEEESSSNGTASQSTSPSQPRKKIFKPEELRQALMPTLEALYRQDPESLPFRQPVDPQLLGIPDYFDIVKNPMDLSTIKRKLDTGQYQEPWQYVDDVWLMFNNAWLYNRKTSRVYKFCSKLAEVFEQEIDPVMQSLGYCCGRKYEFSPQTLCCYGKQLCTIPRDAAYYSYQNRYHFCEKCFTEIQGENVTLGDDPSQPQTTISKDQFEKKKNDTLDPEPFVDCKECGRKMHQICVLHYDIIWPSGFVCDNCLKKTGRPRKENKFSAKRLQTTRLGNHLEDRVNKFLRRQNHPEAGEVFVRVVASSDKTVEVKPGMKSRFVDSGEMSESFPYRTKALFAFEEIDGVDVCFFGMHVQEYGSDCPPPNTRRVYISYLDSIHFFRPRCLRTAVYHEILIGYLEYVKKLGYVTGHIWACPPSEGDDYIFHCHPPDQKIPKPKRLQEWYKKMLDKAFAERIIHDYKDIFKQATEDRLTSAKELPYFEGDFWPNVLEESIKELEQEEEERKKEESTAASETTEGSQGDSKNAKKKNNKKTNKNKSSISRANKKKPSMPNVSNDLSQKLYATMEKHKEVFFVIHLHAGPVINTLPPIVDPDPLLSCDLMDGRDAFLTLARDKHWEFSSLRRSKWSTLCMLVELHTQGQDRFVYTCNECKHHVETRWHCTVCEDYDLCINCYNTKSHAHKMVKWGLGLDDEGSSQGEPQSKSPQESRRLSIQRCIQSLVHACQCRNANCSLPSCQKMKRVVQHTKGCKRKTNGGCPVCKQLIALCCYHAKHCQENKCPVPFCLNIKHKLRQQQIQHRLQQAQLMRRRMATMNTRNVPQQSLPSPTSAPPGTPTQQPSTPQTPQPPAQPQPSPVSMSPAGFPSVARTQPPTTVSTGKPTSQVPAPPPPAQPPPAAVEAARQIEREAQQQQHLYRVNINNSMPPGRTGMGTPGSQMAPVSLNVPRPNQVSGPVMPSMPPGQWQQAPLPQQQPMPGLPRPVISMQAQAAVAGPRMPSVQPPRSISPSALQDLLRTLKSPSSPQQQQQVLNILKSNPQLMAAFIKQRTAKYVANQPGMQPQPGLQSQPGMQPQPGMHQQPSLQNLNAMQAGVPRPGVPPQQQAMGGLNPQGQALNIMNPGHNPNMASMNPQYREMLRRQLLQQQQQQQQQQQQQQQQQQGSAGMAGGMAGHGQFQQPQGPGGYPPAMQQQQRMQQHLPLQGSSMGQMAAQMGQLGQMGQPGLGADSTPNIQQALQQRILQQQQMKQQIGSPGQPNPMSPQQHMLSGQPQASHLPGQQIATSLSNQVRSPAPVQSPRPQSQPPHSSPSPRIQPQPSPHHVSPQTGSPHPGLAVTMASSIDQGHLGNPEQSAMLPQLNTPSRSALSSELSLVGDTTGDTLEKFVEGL
T2 sequence (Q96SW2 whole entry partner): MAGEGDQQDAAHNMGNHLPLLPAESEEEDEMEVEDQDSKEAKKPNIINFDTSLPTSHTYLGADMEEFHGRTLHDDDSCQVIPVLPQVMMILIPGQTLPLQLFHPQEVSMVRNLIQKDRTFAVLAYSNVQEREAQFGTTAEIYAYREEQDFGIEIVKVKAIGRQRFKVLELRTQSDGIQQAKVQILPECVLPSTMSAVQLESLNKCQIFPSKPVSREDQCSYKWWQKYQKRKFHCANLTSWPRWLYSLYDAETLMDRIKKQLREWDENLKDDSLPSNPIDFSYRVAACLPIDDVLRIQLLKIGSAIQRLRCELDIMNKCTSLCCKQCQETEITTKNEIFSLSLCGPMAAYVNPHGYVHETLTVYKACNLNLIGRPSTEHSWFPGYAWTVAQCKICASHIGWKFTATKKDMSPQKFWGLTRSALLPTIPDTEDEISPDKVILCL

[10] = target: T1, Protein cereblon/Histone acetyltransferase p300; assay: PROTAC activity at CRBN/p300 in human SK-HEP1 cells assessed as induction of p300 degradation by measuring residual activity at 0.5 uM pretreated with MG-132 followed by compound addition by immunoblotting analysis relative to control; type: cell-based
[11] = target: T2, Protein cereblon/CREB-binding protein (Homo sapiens); assay: PROTAC activity at CRBN/CBP in human SK-HEP1 cells assessed as induction of […] protein degradation by measuring residual activity at 1 uM incubated for 24 hrs by immunoblotting analysis (reference value: 100%); type: cell-based
[12] = target: T1, Protein cereblon/Histone acetyltransferase p300; assay: PROTAC activity at CRBN/p300 in human SK-HEP1 cells assessed as induction of p300 protein degradation at 0.1 uM incubated for 24 hrs relative to control; type: cell-based
[13] = tested on: SK-HEP1; assay: Downregulation of POSTN mRNA expression in human SK-HEP1 cells at 1 uM incubated for 24 hrs by RT-qPCR analysis; type: functional, cell-based
[14] = target: T1, Protein cereblon/Histone acetyltransferase p300; assay: PROTAC activity at CRBN/p300 in human SK-HEP1 cells assessed as induction of p300 protein degradation by measuring residual activity at 10 nM incubated for 24 hrs by immunoblotting analysis (reference value: 100%); type: cell-based
[15] = tested on: SK-HEP1; assay: Antiproliferative activity against human SK-HEP1 cells assessed as inhibition of cell growth incubated for 5 days by CCK-8 assay; type: functional, cell-based; details: SK-HEP1, 120 h
[16] = tested on: SK-HEP1; assay: Induction of cell cycle arrest at G2/M phase in human SK-HEP1 cells incubated for 48 hrs by RNase/PI staining based flow cytometry analysis; type: functional; details: dose 0.5-2 µM
[17] = tested on: SK-HEP1; assay: Induction of cell cycle arrest at G2/M phase in human SK-HEP1 cells assessed as CDK6 protein level at 1 uM incubated for 24 hrs by immunoblotting analysis (reference value: 100%); type: functional
[18] = target: T1, Protein cereblon/Histone acetyltransferase p300; assay: PROTAC activity at CRBN/p300 in human SK-HEP1 cells assessed as induction of p300 protein degradation incubated for 24 hrs by immunoblotting analysis; type: cell-based
[19] = tested on: SK-HEP1; assay: Induction of cell cycle arrest at G2/M phase in human SK-HEP1 cells assessed as CDK6 protein level at 0.5 uM incubated for 24 hrs by immunoblotting analysis (reference value: 100%); type: functional
[20] = target: T1, Protein cereblon/Histone acetyltransferase p300; assay: PROTAC activity at CRBN/p300 in human SK-HEP1 cells assessed as induction of p300 degradation by measuring residual activity at 0.5 uM pretreated with thalidomide at 0.5 uM followed by compound addition by immunoblotting analysis relative to control; type: cell-based
[21] = target: T1, Protein cereblon/Histone acetyltransferase p300; assay: PROTAC activity at CRBN/p300 in human SK-HEP1 cells assessed as induction of p300 degradation by measuring residual activity at 0.5 uM pretreated with MLN4924 at 0.5 uM followed by compound addition by immunoblotting analysis relative to control; type: cell-based
[22] = tested on: SK-HEP1; assay: Induction of cell cycle arrest at G2/M phase in human SK-HEP1 cells assessed as SKP2 protein level at 0.5 uM incubated for 24 hrs by immunoblotting analysis (reference value: 100%); type: functional
[23] = tested on: SK-HEP1; assay: Inhibition of colony formation in human SK-HEP1 cells incubated for 14 days with compound containing media replacement for every 3 days by crystal violet staining based assay; type: functional, cell-based; details: dose 0.5-2 µM, time 14.0 day
[24] = target: T1, Protein cereblon/Histone acetyltransferase p300; assay: PROTAC activity at CRBN/p300 in human SK-HEP1 cells assessed as induction of p300 protein degradation by measuring residual activity at 1 uM incubated for 6 hrs by immunoblotting analysis (reference value: 100%); type: cell-based
[25] = tested on: SK-HEP1; assay: Downregulation of COL3A1 mRNA expression in human SK-HEP1 cells at 1 uM incubated for 24 hrs by RT-qPCR analysis; type: functional, cell-based
[26] = target: T1, Protein cereblon/Histone acetyltransferase p300; assay: PROTAC activity at CRBN/p300 in human SK-HEP1 cells assessed as induction of p300 protein degradation by measuring residual activity at 1 uM incubated for 0.5 hrs by immunoblotting analysis (reference value: 100%); type: cell-based
[27] = target: T2, Protein cereblon/CREB-binding protein (Homo sapiens); assay: PROTAC activity at CRBN/CBP in human SK-HEP1 cells assessed as induction of […] protein degradation by measuring residual activity at 0.5 uM incubated for 24 hrs by immunoblotting analysis (reference value: 100%); type: cell-based
[28] = target: T2, Protein cereblon/CREB-binding protein (Homo sapiens); assay: In vivo PROTAC activity at CRBN/CBP in nude mouse xenografted with human SK-HEP1 cells assessed as reduction in CBP protein level in tumor at 50 mg/kg, ip measured after 24 hrs by immunoblotting analysis; type: functional, organism-based
[29] = target: T1, Protein cereblon/Histone acetyltransferase p300; assay: PROTAC activity at CRBN/p300 in human SK-HEP1 cells assessed as induction of p300 protein degradation at 0.01 uM incubated for 24 hrs relative to control; type: cell-based
[30] = target: T1, Protein cereblon/Histone acetyltransferase p300; assay: PROTAC activity at CRBN/p300 in human SK-HEP1 cells assessed as induction of p300 protein degradation by measuring residual activity at 1 uM incubated for 12 hrs by immunoblotting analysis (reference value: 100%); type: cell-based

**Q.** With `Cc1noc(C)c1-c1ccc2c(c1)nc([C@@H]1CCCC(=O)N1c1ccc(F)c(F)c1)n2C1CCN(C2CN(c3ccc4c(c3)C(=O)N(C3CCC(=O)NC3=O)C4=O)C2)CC1` (stereo partly specified) as the compound, how does the Activity [1] read?
**A.** 115%

**Q.** And the Activity [2]?
**A.** 38%

**Q.** What about the Activity [3] of the same compound?
**A.** 537%

**Q.** What about the Activity [4] of the same compound?
**A.** Active

**Q.** And the Activity [5]?
**A.** 60%

**Q.** What about the Activity [6] of the same compound?
**A.** 87%

**Q.** What about the Activity [7] of the same compound?
**A.** 88%

**Q.** What about the Activity [8] of the same compound?
**A.** Active

**Q.** And the Activity [9]?
**A.** Dose-Dependent Effect

**Q.** What about the Activity [10] of the same compound?
**A.** 93%

**Q.** And the Activity [11]?
**A.** 92%

**Q.** What about the Activity [12] of the same compound?
**A.** 27%

**Q.** What about the Activity [13] of the same compound?
**A.** Active

**Q.** What about the Activity [14] of the same compound?
**A.** 70%

**Q.** What about the IC50 [15] of the same compound?
**A.** 0.733 µM

**Q.** What about the Activity [16] of the same compound?
**A.** Dose-Dependent Effect

**Q.** What about the Activity [17] of the same compound?
**A.** 102%

**Q.** What about the Activity [18] of the same compound?
**A.** Dose-Dependent Effect

**Q.** What about the DC50 [18] of the same compound?
**A.** 0.093 µM

**Q.** What about the Activity [19] of the same compound?
**A.** 104%

**Q.** And the Activity [20]?
**A.** 99%

**Q.** What about the Activity [21] of the same compound?
**A.** 101%

**Q.** And the Activity [22]?
**A.** 117%

**Q.** And the inhibition [23]?
**A.** Dose-Dependent Effect

**Q.** What about the Activity [24] of the same compound?
**A.** 59%

**Q.** And the Activity [25]?
**A.** Active

**Q.** What about the Activity [26] of the same compound?
**A.** 100%

**Q.** What about the Activity [27] of the same compound?
**A.** 98%

**Q.** And the Activity [28]?
**A.** Active

**Q.** What about the Activity [29] of the same compound?
**A.** 9%

**Q.** What about the Activity [30] of the same compound?
**A.** 58%
